Measured values reported in publication PMC7011792 (Journal of Enzyme Inhibition and Medicinal Chemistry, 2017).

What was measured:
[1] = target: T1, AChE (EC 3.1.1.7) from electric eel (Electrophorus electricus, UniProt O42275); test: biochemical; settings: for IC50: AChE from electric eel, mean ± SEM of three experiments; for Selectivity index (SI) = BuChE IC50/AChE IC50: eqBuChE IC50 / eeAChE IC50
T1 construct: purchased Sigma-Aldrich C3389
Protocol: (§1) AChE (EC 3.1.1.7, Type VI-S, from electric eel, C3389; from human, C1682) and BuChE (EC 3.1.1.8, from equine serum, C0663; from human, B4186), 5,5'-dithiobis (2-nitrobenzoic acid) (DTNB, D218200), acetylthiocholine iodide (ATC, A5751), and butyrylthiocholine iodide (BTC, B3253) were obtained from Sigma-Aldrich (St. Louis, MO).
(§2) The inhibitory effects of the synthesised compounds in this paper were evaluated according to our previously reported method. […] ATC/BTC iodide solution (0.075 M) was prepared in deionised water. […] The assay buffer was prepared as follows: potassium dihydrogen phosphate (1.36 g, 10 mmol) was dissolved in 100 ml of water. The pH of the solution was then adjusted to 8.0 ± 0.1 with KOH. Stock solutions of the test samples were dissolved in ethanol to give a final concentration of 10^−4 M when diluted to the final volume of 3.32 ml. For each compound, a dilution series of at least five different concentrations (normally 10^−5–10^−9 M) were prepared.
(§3) For measurement, a cuvette containing 3.0 ml of phosphate buffer, 100 µL of AChE or BuChE, 100 µL of DTNB, and 100 µL of the test compound solution were added in sequence. The reaction was initiated after adding 20 µL of ATC or BTC, and the solution was mixed immediately. […] For the reference value, 100 µL of water replaced the test compound solution. For the blank control, additionally 100 µL of water replaced the enzyme solution. The measurement for each concentration was assayed in triplicate. GraphPad Prism 5 was used for data processing. The inhibition curve was fitted by plotting percentage enzyme activity (100% for the reference) versus logarithm of test compound concentration. The IC50 values were calculated according to the curve, and the data were shown in mean ± SEM.
(§4) The inhibitory effects on ChEs of all the target compounds were determined according to Ellman’s method. AChE from electrophorus electricus (eeAChE) and BuChE from equine serum (eqBuChE) were used in the assays.

[2] = target: T2, BuChE (EC 3.1.1.8) from horse serum (Equus caballus, UniProt P81908); test: biochemical; type: biochemical; settings: for IC50: BuChE from horse serum, mean ± SEM of three experiments; for selective index (selectivity on BuChE): selectivity on BuChE over AChE (eeAChE, eqBuChE)
T2 construct: purchased Sigma-Aldrich C0663; host or cells: equine serum
Protocol: as §1, §2, §3, §4

T2 sequence (P81908 whole entry): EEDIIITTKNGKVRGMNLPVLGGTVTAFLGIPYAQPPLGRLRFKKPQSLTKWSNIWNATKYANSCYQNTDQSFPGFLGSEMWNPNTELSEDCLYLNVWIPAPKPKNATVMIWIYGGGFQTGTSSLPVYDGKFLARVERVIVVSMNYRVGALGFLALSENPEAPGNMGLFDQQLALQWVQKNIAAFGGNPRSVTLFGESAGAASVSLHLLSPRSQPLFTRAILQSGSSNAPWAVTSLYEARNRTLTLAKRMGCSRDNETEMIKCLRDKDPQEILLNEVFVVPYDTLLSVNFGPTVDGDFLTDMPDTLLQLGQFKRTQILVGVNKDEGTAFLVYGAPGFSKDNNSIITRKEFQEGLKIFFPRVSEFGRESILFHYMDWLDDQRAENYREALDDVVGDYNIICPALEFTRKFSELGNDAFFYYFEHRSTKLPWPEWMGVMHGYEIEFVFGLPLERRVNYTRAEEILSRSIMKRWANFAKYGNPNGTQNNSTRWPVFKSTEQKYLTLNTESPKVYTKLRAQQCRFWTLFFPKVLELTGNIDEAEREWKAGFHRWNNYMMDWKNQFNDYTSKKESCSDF
T1 sequence (O42275 24-633): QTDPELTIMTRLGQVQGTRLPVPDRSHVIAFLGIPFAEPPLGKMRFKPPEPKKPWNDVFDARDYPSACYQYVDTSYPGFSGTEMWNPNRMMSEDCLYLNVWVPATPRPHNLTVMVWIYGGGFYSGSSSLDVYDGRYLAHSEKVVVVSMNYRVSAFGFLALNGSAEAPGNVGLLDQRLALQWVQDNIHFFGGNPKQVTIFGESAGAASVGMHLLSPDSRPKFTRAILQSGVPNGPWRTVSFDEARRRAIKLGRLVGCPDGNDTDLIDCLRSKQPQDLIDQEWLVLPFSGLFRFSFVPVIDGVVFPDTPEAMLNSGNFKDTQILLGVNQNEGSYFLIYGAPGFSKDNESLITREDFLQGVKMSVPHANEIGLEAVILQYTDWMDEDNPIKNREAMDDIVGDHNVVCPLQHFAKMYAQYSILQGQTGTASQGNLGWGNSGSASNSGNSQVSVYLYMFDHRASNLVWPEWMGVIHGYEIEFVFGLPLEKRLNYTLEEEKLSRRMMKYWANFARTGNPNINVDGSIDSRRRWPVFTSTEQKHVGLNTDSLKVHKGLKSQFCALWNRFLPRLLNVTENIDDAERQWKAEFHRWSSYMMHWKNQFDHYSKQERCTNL

Row | Structure (SMILES) | IC50 [1] [nM] | Selectivity index (SI) = BuChE IC50/AChE IC50 [1] | IC50 [2] [nM] | selective index (selectivity on BuChE) [2]
1 | O=C(/C=C/c1ccccc1)NCCNc1c2c(nc3ccccc13)CCCC2 [Compound 9] | 328 ± 122 | 0.2 | 69.1 ± 27.3 | 
2 | O=C(/C=C/c1ccccc1)NCCCNc1c2c(nc3ccccc13)CCCC2 [Compound 10] | 100 ± 5.2 | 0.03 | 3.5 ± 0.4 | 28.7
3 | O=C(C=Cc1ccccc1)NCCCCNc1c2c(nc3ccccc13)CCCC2 [Compound 11, N-(4-((1,2,3,4-tetrahydroacridin-9-yl)amino)butyl)cinnamamide] | 209 ± 76 | 0.01 | 2.9 ± 0.4 | 71.17
4 | O=C(C=Cc1ccccc1)NCCCCCCNc1c2c(nc3ccccc13)CCCC2 [Compound 12, N-(6-((1,2,3,4-tetrahydroacridin-9-yl)amino)hexyl)cinnamamide] | 26.5 ± 10.7 | 1.3 | 34.4 ± 16.6 | 
5 | O=C(/C=C/c1ccccc1)NCCCCCCCCNc1c2c(nc3ccccc13)CCCC2 [Compound 13] | 22.8 ± 9.2 | 0.3 | 7.8 ± 4.7 | 
6 | Cc1ccccc1/C=C/C(=O)NCCCCCCNc1c2c(nc3ccccc13)CCCC2 [Compound 14, (E)-N-(6-((1,2,3,4-tetrahydroacridin-9-yl)amino)hexyl)-3-(o-tolyl)acrylamide] | 36 ± 12.3 | 0.2 | 6 ± 1.5 | 
7 | Cc1cccc(/C=C/C(=O)NCCCCCCNc2c3c(nc4ccccc24)CCCC3)c1 [Compound 15, (E)-N-(6-((1,2,3,4-tetrahydroacridin-9-yl)amino)hexyl)-3-(m-tolyl)acrylamide] | 53.1 ± 6.9 | 0.7 | 37.3 ± 7.2 | 
8 | Cc1ccc(/C=C/C(=O)NCCCCCCNc2c3c(nc4ccccc24)CCCC3)cc1 [Compound 16, (E)-N-(6-((1,2,3,4-tetrahydroacridin-9-yl)amino)hexyl)-3-(p-tolyl)acrylamide] | 22 ± 3.7 | 2.5 | 54.4 ± 11.7 | 
9 | O=C(/C=C/c1ccccc1[N+](=O)[O-])NCCCCCCNc1c2c(nc3ccccc13)CCCC2 [Compound 17, (E)-3-(2-nitrophenyl)-N-(6-((1,2,3,4-tetrahydroacridin-9-yl)amino)hexyl)acrylamide] | 17.5 ± 3.7 | 0.2 | 3.6 ± 0.3 | 
10 | O=C(/C=C/c1cccc([N+](=O)[O-])c1)NCCCCCCNc1c2c(nc3ccccc13)CCCC2 [Compound 18, (E)-3-(3-nitrophenyl)-N-(6-((1,2,3,4-tetrahydroacridin-9-yl)amino)hexyl)acrylamide] | 3.6 ± 0.5 | 1.9 | 6.8 ± 0.6 | 
11 | O=C(/C=C/c1ccc(Cl)c([N+](=O)[O-])c1)NCCCCCCNc1c2c(nc3ccccc13)CCCC2 [Compound 20, (E)-3-(4-chloro-3-nitrophenyl)-N-(6-((1,2,3,4-tetrahydroacridin-9-yl)amino)hexyl)acrylamide] | 6.2 ± 2 | 1.8 | 11.1 ± 2.2 | 
12 | O=C(/C=C/c1ccccc1C(F)(F)F)NCCCCCCNc1c2c(nc3ccccc13)CCCC2 [Compound 21, (E)-N-(6-((1,2,3,4-tetrahydroacridin-9-yl)amino)hexyl)-3–(2-(trifluoromethyl)phenyl)acrylamide] | 41.7 ± 8.5 | 0.04 | 2.4 ± 0.6 | 
13 | O=C(/C=C/c1cccc(C(F)(F)F)c1)NCCCCCCNc1c2c(nc3ccccc13)CCCC2 [Compound 22, (E)-N-(6-((1,2,3,4-tetrahydroacridin-9-yl)amino)hexyl)-3–(3-(trifluoromethyl)phenyl)acrylamide] | 61.3 ± 16.7 | 1.3 | 81.1 ± 15.7 | 
14 | O=C(/C=C/c1ccc(C(F)(F)F)cc1)NCCCCCCNc1c2c(nc3ccccc13)CCCC2 [Compound 23, (E)-N-(6-((1,2,3,4-tetrahydroacridin-9-yl)amino)hexyl)-3–(4-(trifluoromethyl)phenyl)acrylamide] | 8.1 ± 0.3 | 2.0 | 16.4 ± 1.8 | 
15 | O=C(/C=C/c1ccc(F)cc1)NCCCCCCNc1c2c(nc3ccccc13)CCCC2 [Compound 24, (E)-3-(4-fluorophenyl)-N-(6-((1,2,3,4-tetrahydroacridin-9-yl)amino)hexyl)acrylamide] | 15.4 ± 3.3 | 4.3 | 65.9 ± 21.4 | 
16 | O=C(/C=C/c1ccccc1Cl)NCCCCCCNc1c2c(nc3ccccc13)CCCC2 [Compound 25, (E)-3-(2-chlorophenyl)-N-(6-((1,2,3,4-tetrahydroacridin-9-yl)amino)hexyl)acrylamide] | 14.2 ± 3.2 | 0.6 | 8.7 ± 2.7 | 
17 | O=C(/C=C/c1cccc(Cl)c1)NCCCCCCNc1c2c(nc3ccccc13)CCCC2 [Compound 26, (E)-3-(3-chlorophenyl)-N-(6-((1,2,3,4-tetrahydroacridin-9-yl)amino)hexyl)acrylamide] | 16.2 ± 6.5 | 0.6 | 9.2 ± 2.5 | 
18 | O=C(/C=C/c1ccc(Br)cc1)NCCCCCCNc1c2c(nc3ccccc13)CCCC2 [Compound 28, (E)-3-(4-bromophenyl)-N-(6-((1,2,3,4-tetrahydroacridin-9-yl)amino)hexyl)acrylamide] | 19.1 ± 2 | 1.6 | 29.9 ± 1.8 | 
19 | N#Cc1cccc(/C=C/C(=O)NCCCCCCNc2c3c(nc4ccccc24)CCCC3)c1 [Compound 29] | 5.1 ± 0.8 | 13.4 | 68.5 ± 13.6 | 
20 | COc1ccc(/C=C/C(=O)NCCCCCCNc2c3c(nc4ccccc24)CCCC3)c(OC)c1OC [Compound 31, (E)-N-(6-((1,2,3,4-tetrahydroacridin-9-yl)amino)hexyl)-3–(2,3,4-trimethoxyphenyl)acrylamide] | 24.1 ± 8.1 | 0.3 | 8.1 ± 2 | 
21 | COc1cc(/C=C/C(=O)NCCCCCCNc2c3c(nc4ccccc24)CCCC3)cc(OC)c1OC [Compound 32, (E)-N-(6-((1,2,3,4-tetrahydroacridin-9-yl)amino)hexyl)-3–(3,4,5-trimethoxyphenyl)acrylamide] | 6.4 ± 2.2 | 0.5 | 3.4 ± 0.4 | 
22 | O=C(/C=C/c1cccc(O)c1)NCCCCCCNc1c2c(nc3ccccc13)CCCC2 [Compound 33, (E)-3-(3-hydroxyphenyl)-N-(6-((1,2,3,4-tetrahydroacridin-9-yl)amino)hexyl)acrylamide] | 6.4 ± 2.1 | 3.9 | 25.1 ± 6.5 | 
23 | O=C(/C=C/c1ccc(O)cc1)NCCCCCCNc1c2c(nc3ccccc13)CCCC2 [Compound 34, (E)-3-(4-hydroxyphenyl)-N-(6-((1,2,3,4-tetrahydroacridin-9-yl)amino)hexyl)acrylamide] | 2.2 ± 0.3 | 19.8 | 43.5 ± 9.3 | 
24 | COc1cc(/C=C/C(=O)NCCCCCCNc2c3c(nc4ccccc24)CCCC3)ccc1OCc1ccccc1 [Compound 36] | 86.3 ± 30 | 0.3 | 29.8 ± 7.3 | 
25 | COc1cc(/C=C/C(=O)NCCCCCCNc2c3c(nc4ccccc24)CCCC3)ccc1OCc1ccc(Cl)cc1 [Compound 37] | 104 ± 26.4 |  | 22.6 ± 7.1 | 
26 | COc1cc(/C=C/C(=O)NCCCCCCNc2c3c(nc4ccccc24)CCCC3)ccc1OCc1ccc(C)cc1 [Compound 38] | 128 ± 13.3 | 0.5 | 58.4 ± 7.5 | 
